How the values were obtained:
[1] = system: MDA-MB-231 (triple negative breast cancer) cells; format: cell-based, human
[2] = system: MCF-7 (ER+ breast cancer) cells; assay: cells; format: cell-based, human

CC(C)CC(c1cc(O)c2c(c1O)C(=O)c1ccccc1C2=O)N(CCCl)CCCl (stereo not shown) [5f, 2-(1-(Bis(2-chloroethyl)amino)-3-methylbutyl)-1,4-dihydroxyanthracene-9,10-dione]
fold stronger than compound 5b [1]: approximately 70 fold

COc1cccc2c1C(=O)c1c(O)c3c(c(O)c1C2=O)C[C@@](O)(C(=O)CO)C[C@@H]3O[C@H]1C[C@H](N)[C@H](O)[C@H](C)O1 [Doxorubicin, reference compound]
IC50 ([2]; Homo sapiens, MCF7, 120 h, read-out: IC50 MCF-7): 0.294 nM

O=C1c2ccccc2C(=O)c2c(O)c(C(c3ccc(F)cc3)N(CCCl)CCCl)cc(O)c21 (stereo not shown) [5k, 2-((Bis(2-chloroethyl)amino)(4-fluorophenyl)methyl)-1,4-dihydroxyanthracene-9,10-dione]
times more potent than chlorambucil [2]: over 100 times

O=C1c2ccccc2C(=O)c2c(O)c(C(c3ccccc3F)N(CCCl)CCCl)cc(O)c21 (stereo not shown) [5i, 2-((Bis(2-chloroethyl)amino) (2-fluorophenyl)methyl)-1,4-dihydroxyanthracene-9,10-dione]
fold increase in inhibitory activity compared to chlorambucil [1]: ca. 900 fold
